# Assay results: patent US20240238265A1 (priority 2020, published 2024)
# Counter-ions that a name gives are not always drawn. Like-named read-outs stand apart in the source and are kept apart here.
# Legend:
# [1] = in vitro; conditions: African green monkey
# [2] = test system: pseudotyped VSV expressing BDBV glycoprotein; experiment: microbe, parasite or virus in culture; format: cell-based, Bundibugyo virus (BDBV); conditions: Vesicular stomatitis virus, Vero, 24 h, read-out: EC50 (uM) Pseudotype Assays BDBV
# [3] = test system: pseudotyped VSV expressing SUDV glycoprotein; experiment: microbe, parasite or virus in culture; format: cell-based, Sudan virus (SUDV); conditions: read-out: EC50 (uM) Pseudotype Assays SUDV
# [4] = test system: pseudotyped VSV expressing MARV glycoprotein; experiment: microbe, parasite or virus in culture; format: cell-based, Marburg virus (MARV); conditions: Vesicular stomatitis virus, Vero, 24 h, read-out: EC50 (uM) Pseudotype Assays MARV
# [5] = test system: pseudotyped VSV expressing EBOV glycoprotein; experiment: microbe, parasite or virus in culture; format: cell-based, Ebola virus (EBOV); conditions: read-out: EC50 (uM) Pseudotype Assays EBOV
# [6] = 1 h, pH 7.4
# [7] = 1 h, pH 7.4; remark: listed apart in the source
# [8] = 1 h, pH 7.4; remark: listed apart in the source
# [9] = 1 h, pH 7.4; remark: listed apart in the source
# [10] = test system: WT EBOV-Mayinga; experiment: microbe, parasite or virus in culture; format: cell-based, Ebola virus (EBOV); conditions: Zaire ebolavirus
# [11] = Vesicular stomatitis virus, Vero, 24 h
SMILES,CC50 [1] [nM],EC50 [2] [µM],"EC50 [3, 11] [µM]",EC50 [4] [µM],"EC50 ([5]; Zaire ebolavirus, Vero, 24 h) [µM]",also measured
CC(C)CC1C2CC3(C(=O)N[C@H]4CC[C@H](N)CC4)CC1CC(c1ccccc1)(C2)C3 (stereo partly drawn) [Example F4],5800,0.3,0.86,1.38,0.016,
C[C@]12CC3CC(C(=S)N[C@H]4CN5CCC4CC5)(C1)C[C@@](c1ccccc1)(C3)C2 [Example A3],1770,0.29,0.08,> 1,0.067,
"CC1(C)CN(C(=O)C23CC4CC(CCl)(C2)CC(c2ccccc2)(C4)C3)CC[C@@H]1N (mixture of isomers) [Example E2, rac-((S)-4-amino-3,3-dimethylpiperidin-1-yl)(3-(chloromethyl)-5-phenyladamantan-1-yl)methanone]",36900,0.35,0.165,> 1,0.057,
"CC1(C)CN(C(=S)[C@@]23C[C@H]4C[C@@](C)(C2)C[C@](c2ccccc2)(C4)C3)CC[C@@H]1N [Example A1, ((S)-4-amino-3,3-dimethylpiperidin-1-yl)((1 S,3R,5R,7S)-3-methyl-5-phenyladamantan-1-yl)methanethione]",3800,0.11,0.043,> 1,0.061,"Percent parent compound remaining at 60 minutes in liver microsomes, Monkey [6]: 19%; Percent parent compound remaining at 60 minutes in liver microsomes, Guinea Pig [7]: 32%; Percent parent compound remaining at 60 minutes in liver microsomes, Human [8]: 72%"
C[C@]12CC3CC(C(=S)N[C@H]4CC[C@@H](N)CC4)(C1)C[C@@](c1ccccc1)(C3)C2 [Example A5],,0.19,0.125,,0.12,
C[C@@]12CC3CC(C(=S)N[C@H]4CN5CCC4CC5)(C1)C[C@](c1ccccc1)(C3)C2 [Example B3],,0.31,0.36,> 1,0.66,
C[C@]12CC3CC(C(=S)N[C@H]4CC[C@H](CN)CC4)(C1)C[C@@](c1ccccc1)(C3)C2 [Example A7],2860,0.09,0.095,,0.075,
"CCC1(Cl)C2CC3(C(=O)N4CC[C@H](N)C(C)(C)C4)CC1CC(c1ccccc1)(C2)C3 (stereo partly drawn) [Example H3, ((S)-4-amino-3,3-dimethylpiperidin-1-yl)(6-chloro-6-ethyl-3-phenyladamantan-1-yl)methanone]",14700,,0.17,,0.063,
C[C@]12CC3CC(C(=S)N4CCC(N)CC4)(C1)C[C@@](c1ccccc1)(C3)C2 [Example A4],4090,0.06,0.04,,0.085,
CCC1C2CC3(C(=O)N4CC[C@H](N)C(C)(C)C4)CC1CC(c1ccccc1)(C2)C3 (stereo partly drawn) [Example F5],12300,,0.1,,0.046,
"N[C@H]1CC[C@H](NC(=O)C23CC4CC(c5ccccc5)(CC(C2)C4CCF)C3)CC1 (stereo partly drawn) [Example H4, trans-N-(4-aminocyclohexyl)-6-(2-fluoroethyl)-3-phenyladamantane-1-carboxamide]",25100,,0.16,,0.014,"Percent parent compound remaining at 60 minutes in liver microsomes, Guinea Pig [7]: 80.5%; Percent parent compound remaining at 60 minutes in liver microsomes, Human [8]: 81%; Percent parent compound remaining at 60 minutes in liver microsomes, Mouse [9]: 39%"
C[C@]12CC3CC(C(=S)NC4CCNCC4)(C1)C[C@@](c1ccccc1)(C3)C2 [Example A6],4720,0.085,0.08,,0.064,
CC1(C)CN(C(=S)C23CC4C[C@](C)(C2)C[C@@](c2ccccc2)(C4)C3)CC[C@@H]1N [Example B1],,0.4,0.26,,0.74,
"CSCC12CC3CC(C(=O)N[C@H]4CC[C@H](N)CC4)(C1)CC(c1ccccc1)(C3)C2 (mixture of isomers) [Example E6, rac-trans-N-(4-aminocyclohexyl)-3-((methylthio)methyl)-5-phenyladamantane-1-carboxamide]",34600,0.6,0.75,> 1,0.05,
C[C@@]12CC3CC(C(=S)N[C@H]4CC[C@H](N)CC4)(C1)C[C@](c1ccccc1)(C3)C2 [Example B2],3720,0.16,0.26,,0.09,
"N[C@H]1CC[C@H](NC(=O)C23CC4CC(CSc5ccccc5)(C2)CC(c2ccccc2)(C4)C3)CC1 (mixture of isomers) [Example E7, rac-trans-N-(4-aminocyclohexyl)-3-phenyl-5-((phenylthio)methyl)adamantane-1-carboxamide]",4750,1.21,> 1,> 1,0.056,
"N[C@H]1CC[C@H](NC(=O)C23CC4CC(Br)(C2)CC(c2ccccc2)(C4)C3)CC1 (mixture of isomers) [Example E3, rac-trans-N-(4-aminocyclohexyl)-3-bromo-5-phenyladamantane-1-carboxamide]",,0.19,0.34,,0.061,"Percent parent compound remaining at 60 minutes in liver microsomes, Monkey [6]: 91%; Percent parent compound remaining at 60 minutes in liver microsomes, Guinea Pig [7]: 96%; Percent parent compound remaining at 60 minutes in liver microsomes, Human [8]: 97.5%"
"N[C@H]1CC[C@H](NC(=O)C23CC4CC(c5ccccc5)(CC(C2)C4CCCl)C3)CC1 (stereo partly drawn) [Example H5, trans-N-(4-aminocyclohexyl)-6-(2-chloroethyl)-3-phenyladamantane-1-carboxamide]",7260,,0.27,,0.01,"Percent parent compound remaining at 60 minutes in liver microsomes, Guinea Pig [7]: 80.5%; Percent parent compound remaining at 60 minutes in liver microsomes, Human [8]: 85%; Percent parent compound remaining at 60 minutes in liver microsomes, Mouse [9]: 35%"
"CC1(O)C2CC3(C(=O)N[C@H]4CC[C@H](N)CC4)CC1CC(c1ccccc1)(C2)C3 (stereo partly drawn) [Example H1, trans-N-(4-aminocyclohexyl)-6-hydroxy-6-methyl-3-phenyladamantane-1-carboxamide]",,,> 1,,> 1,
"CC1(C)CN(C(=O)C23CC4CC(CSc5ccccc5)(C2)CC(c2ccccc2)(C4)C3)CC[C@@H]1N (mixture of isomers) [Example E8, rac-((S)-4-amino-3,3-dimethylpiperidin-1-yl)(3-phenyl-5-((phenylthio)methyl)adamantan-1-yl)methanone]",,> 1,> 1,> 1,0.145,
"CC1(O)C2CC3(C(=O)N[C@H]4CC[C@H](N)CC4)CC1CC(c1ccccc1)(C2)C3 (stereo partly drawn) [Example H2, trans-N-(4-aminocyclohexyl)-6-hydroxy-6-methyl-3-phenyladamantane-1-carboxamide]",,,,,,EC50 [3]: > 1 µM; EC50 [5]: > 1 µM
"N[C@H]1CC[C@H](NC(=O)C23CC4CC(c5ccccc5)(CC(C2)C4CC(F)F)C3)CC1 (stereo partly drawn) [Example H6, trans-N-(4-aminocyclohexyl)-6-(2,2-difluoroethyl)-3-phenyladamantane-1-carboxamide]",22200,,0.18,,0.02,
CC12CC3CC(C(=S)N[C@H]4CC[C@H](N)CC4)(C1)CC(c1ccccc1)(C3)C2 (mixture of isomers) [Example C2],,0.085,0.07,,0.06,
CC12CC3CC(C(=S)N4CC[C@H](N)C(C)(C)C4)(C1)CC(c1ccccc1)(C3)C2 (mixture of isomers) [Example C1],,0.085,0.035,,0.06,
CCCC1C2CC3(C(=O)N[C@H]4CC[C@H](N)CC4)CC1CC(c1ccccc1)(C2)C3 (stereo partly drawn) [Example F3],4650,0.08,0.39,1.6,0.005,"EC50 ([10]; read-out: WT EBOV-Mayinga EC50 (uM)): ~0.008 µM; EC90 ([10]; read-out: WT EBOV-Mayinga EC90 (uM)): ~0.01 µM; Percent parent compound remaining at 60 minutes in liver microsomes, Monkey [6]: 100%; Percent parent compound remaining at 60 minutes in liver microsomes, Guinea Pig [7]: 48%; Percent parent compound remaining at 60 minutes in liver microsomes, Human [8]: 91%; Percent parent compound remaining at 60 minutes in liver microsomes, Mouse [9]: 26%"
CC12CC3CC(C(=S)N[C@H]4CN5CCC4CC5)(C1)CC(c1ccccc1)(C3)C2 (mixture of isomers) [Example C3],,0.24,0.1,,0.17,
"N[C@H]1CC[C@H](NC(=S)C2C3CC4CC2CC(c2ccccc2)(C4)C3)CC1 (stereo partly drawn) [Example D1, trans-N-(4-aminocyclohexyl)-5-phenyladamantane-2-carbothioamide]",,0.3,0.29,,0.21,
"N[C@H]1CC[C@H](NC(=O)C23CC4CC(CCl)(C2)CC(c2ccccc2)(C4)C3)CC1 (mixture of isomers) [Example E1, rac-trans-N-(4-aminocyclohexyl)-3-(chloromethyl)-5-phenyladamantane-1-carboxamide hydrochloride]",13800,0.12,0.56,> 1,0.034,"Percent parent compound remaining at 60 minutes in liver microsomes, Monkey [6]: 72%; Percent parent compound remaining at 60 minutes in liver microsomes, Guinea Pig [7]: 100%; Percent parent compound remaining at 60 minutes in liver microsomes, Human [8]: 89%; Percent parent compound remaining at 60 minutes in liver microsomes, Mouse [9]: 69%"
